Data set [1] is described as follows: (§1) Half life in human liver microsomes by in vitro metabolic stability assay. It is filed as ADME, Microsome. Conditions: liver microsomes. A general note: Liver microsomes are a subcellular fraction often used to study metabolism.
Data set [2] is described as follows: Half life in mouse liver microsomes by in vitro metabolic stability assay. It is filed as ADME, Microsome. Conditions: for half-life: liver microsomes; for t1/2: microsomes.
Data set [3] has as its target Sodium-dependent serotonin transporter (Homo sapiens, UniProt P31645). The format is cell-based, LLC-PK1.
Data set [4] deals with Sodium-dependent noradrenaline transporter (Homo sapiens, UniProt P23975).
In data set [5] the target is Sodium-dependent dopamine transporter (Homo sapiens, UniProt Q01959). The format is cell-based, COS-7.
The next data set deals with Cytochrome P450 2C9 (Homo sapiens, UniProt P11712). The data set can be described thus: Inhibition of CYP2C9. The format is ADME.
Data set [6] concerns Mus musculus. The data set can be described thus: Antidepressant activity in mouse assessed as reduction in immobility duration pretreated 30 mins before at 100 mg/kg, po by tail suspension test. It is filed as functional. The arrangement: scale not given: the % may be the effect or the level left.
Data set [7] has as its target T1, Voltage-gated inwardly rectifying potassium channel KCNH2 (Homo sapiens, UniProt Q12809).
A further data set deals with Cytochrome P450 2D6 (Homo sapiens, UniProt P10635). Put plainly: Inhibition of CYP2D6. The format is ADME.
A further data set addresses Cytochrome P450 3A4 (Homo sapiens, UniProt P08684). The data set can be described thus: Inhibition of CYP3A4. The format is ADME.
The subject of data set [8] is Mus musculus. The data set can be described thus: Antidepressant activity in mouse assessed as reduction in immobility duration pretreated 30 mins before at 30 mg/kg, po by tail suspension test. It is filed as functional. The arrangement: scale not given: the % may be the effect or the level left.
A short description of data set [9]: Inhibition of CYP1A. It is filed as ADME.
For another data set, the target named is Cytochrome P450 2C19 (Homo sapiens, UniProt P33261). Put plainly: Inhibition of CYP2C19. The format is ADME.
Data set [10] has as its system Brain. Put plainly: Drug level in mouse brain at 3 mg/kg, po. It is filed as functional, organism-based. The arrangement: dose 3 mg/kg.
Data set [11] relates to Mus musculus. Put plainly: Antidepressant activity in po dosed mouse assessed as reduction of immobility duration measured by tail suspension test. The format is functional, organism-based.
Data set [12] deals with Plasma. The data set can be described thus: Drug level in mouse plasma at 10 mg/kg, po. The arrangement: dose 10 mg/kg. The format is functional, organism-based.
Data set [13] concerns Plasma. Put plainly: Drug level in mouse plasma at 30 mg/kg, po. It is filed as functional, organism-based. Also on record: dose 30 mg/kg.
Data set [14] has as its system Brain. The data set can be described thus: Drug level in mouse brain at 10 mg/kg, po. It is filed as functional, organism-based. Also on record: dose 10 mg/kg.
The test system of data set [15] is Brain. The data set can be described thus: Drug level in mouse brain at 30 mg/kg, po. It is filed as functional, organism-based. Also on record: dose 30 mg/kg.
Data set [16] deals with Plasma. The data set can be described thus: Drug level in mouse plasma at 3 mg/kg, po. The format is functional, organism-based. Also on record: dose 3 mg/kg.
For data set [17], the system named is Mus musculus. The data set can be described thus: Antidepressant activity in mouse assessed as reduction of immobility duration measured at first 5 mins time point at 10 or 30 mg/kg, po by tail suspension test. It is filed as functional, organism-based. The arrangement: dose 30 mg/kg.
The subject of the next data set is Liver microsomes. Described as §1. It is filed as ADME, Microsome. The following applies: microsomes.
Data set [18] concerns the target T1, Voltage-gated inwardly rectifying potassium channel KCNH2. The source holds these as a separate data set.
Data set [19] has as its system Mus musculus. Put plainly: Antidepressant activity in mouse assessed as reduction in immobility duration pretreated 30 mins before at 10 mg/kg, po by tail suspension test. It is filed as functional. Also on record: scale not given: the % may be the effect or the level left.

Structures are written as SMILES. Active and inactive are the calls of the source.

Chain of Cytochrome P450 2D6 (P10635 whole entry): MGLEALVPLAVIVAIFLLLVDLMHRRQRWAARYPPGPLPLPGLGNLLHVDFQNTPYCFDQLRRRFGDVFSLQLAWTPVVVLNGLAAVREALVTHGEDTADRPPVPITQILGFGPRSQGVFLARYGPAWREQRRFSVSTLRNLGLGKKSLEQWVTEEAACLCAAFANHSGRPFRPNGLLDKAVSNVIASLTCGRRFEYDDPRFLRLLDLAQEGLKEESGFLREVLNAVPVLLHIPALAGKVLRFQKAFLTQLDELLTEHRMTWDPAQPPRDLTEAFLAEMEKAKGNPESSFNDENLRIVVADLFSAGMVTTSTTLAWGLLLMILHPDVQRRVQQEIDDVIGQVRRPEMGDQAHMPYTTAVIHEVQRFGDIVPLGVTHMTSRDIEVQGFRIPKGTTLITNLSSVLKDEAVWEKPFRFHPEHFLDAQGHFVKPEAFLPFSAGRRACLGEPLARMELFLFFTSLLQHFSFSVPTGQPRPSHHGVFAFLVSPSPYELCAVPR
T1 sequence (Q12809 whole entry): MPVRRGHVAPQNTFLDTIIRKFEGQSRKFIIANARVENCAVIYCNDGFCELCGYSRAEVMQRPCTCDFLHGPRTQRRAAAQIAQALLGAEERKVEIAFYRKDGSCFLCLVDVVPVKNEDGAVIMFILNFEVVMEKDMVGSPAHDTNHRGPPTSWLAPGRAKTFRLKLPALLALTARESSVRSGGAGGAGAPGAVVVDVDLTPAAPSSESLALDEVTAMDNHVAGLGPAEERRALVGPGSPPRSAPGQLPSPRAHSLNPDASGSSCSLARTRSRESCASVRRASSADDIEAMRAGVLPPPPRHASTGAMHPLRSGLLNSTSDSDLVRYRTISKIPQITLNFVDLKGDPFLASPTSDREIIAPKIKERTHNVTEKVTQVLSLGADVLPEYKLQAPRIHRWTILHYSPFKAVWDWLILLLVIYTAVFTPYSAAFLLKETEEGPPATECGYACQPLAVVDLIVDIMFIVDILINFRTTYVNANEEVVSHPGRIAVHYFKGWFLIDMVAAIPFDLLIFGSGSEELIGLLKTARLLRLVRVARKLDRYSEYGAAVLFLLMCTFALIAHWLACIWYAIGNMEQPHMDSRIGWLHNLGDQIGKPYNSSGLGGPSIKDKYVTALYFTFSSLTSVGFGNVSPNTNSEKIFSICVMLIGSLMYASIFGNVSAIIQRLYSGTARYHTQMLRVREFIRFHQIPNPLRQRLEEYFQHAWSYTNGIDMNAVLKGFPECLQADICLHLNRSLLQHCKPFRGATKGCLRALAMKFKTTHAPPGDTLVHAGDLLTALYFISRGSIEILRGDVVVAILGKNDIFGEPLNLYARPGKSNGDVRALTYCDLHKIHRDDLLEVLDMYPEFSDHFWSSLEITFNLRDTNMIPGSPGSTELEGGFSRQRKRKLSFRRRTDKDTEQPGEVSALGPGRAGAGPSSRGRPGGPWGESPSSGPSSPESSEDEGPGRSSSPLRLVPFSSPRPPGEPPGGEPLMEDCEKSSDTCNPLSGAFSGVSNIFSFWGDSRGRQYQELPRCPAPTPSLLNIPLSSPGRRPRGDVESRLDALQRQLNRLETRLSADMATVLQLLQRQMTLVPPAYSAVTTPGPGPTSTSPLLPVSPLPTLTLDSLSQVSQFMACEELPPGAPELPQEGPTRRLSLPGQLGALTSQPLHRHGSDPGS
Chain of Cytochrome P450 3A4 (P08684 whole entry): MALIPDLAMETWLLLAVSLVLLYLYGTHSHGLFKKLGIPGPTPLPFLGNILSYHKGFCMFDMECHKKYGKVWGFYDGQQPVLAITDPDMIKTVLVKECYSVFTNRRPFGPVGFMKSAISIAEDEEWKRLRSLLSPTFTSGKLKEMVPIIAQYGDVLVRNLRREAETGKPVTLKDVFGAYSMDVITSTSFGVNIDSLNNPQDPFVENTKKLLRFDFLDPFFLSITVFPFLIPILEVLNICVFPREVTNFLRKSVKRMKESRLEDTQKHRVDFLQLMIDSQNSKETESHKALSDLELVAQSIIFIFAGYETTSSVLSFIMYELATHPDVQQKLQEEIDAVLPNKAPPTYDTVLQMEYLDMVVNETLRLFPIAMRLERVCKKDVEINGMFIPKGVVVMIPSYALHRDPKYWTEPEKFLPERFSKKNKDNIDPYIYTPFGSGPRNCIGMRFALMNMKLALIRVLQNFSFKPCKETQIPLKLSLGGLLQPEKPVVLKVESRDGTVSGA
Chain of Sodium-dependent serotonin transporter (P31645 whole entry): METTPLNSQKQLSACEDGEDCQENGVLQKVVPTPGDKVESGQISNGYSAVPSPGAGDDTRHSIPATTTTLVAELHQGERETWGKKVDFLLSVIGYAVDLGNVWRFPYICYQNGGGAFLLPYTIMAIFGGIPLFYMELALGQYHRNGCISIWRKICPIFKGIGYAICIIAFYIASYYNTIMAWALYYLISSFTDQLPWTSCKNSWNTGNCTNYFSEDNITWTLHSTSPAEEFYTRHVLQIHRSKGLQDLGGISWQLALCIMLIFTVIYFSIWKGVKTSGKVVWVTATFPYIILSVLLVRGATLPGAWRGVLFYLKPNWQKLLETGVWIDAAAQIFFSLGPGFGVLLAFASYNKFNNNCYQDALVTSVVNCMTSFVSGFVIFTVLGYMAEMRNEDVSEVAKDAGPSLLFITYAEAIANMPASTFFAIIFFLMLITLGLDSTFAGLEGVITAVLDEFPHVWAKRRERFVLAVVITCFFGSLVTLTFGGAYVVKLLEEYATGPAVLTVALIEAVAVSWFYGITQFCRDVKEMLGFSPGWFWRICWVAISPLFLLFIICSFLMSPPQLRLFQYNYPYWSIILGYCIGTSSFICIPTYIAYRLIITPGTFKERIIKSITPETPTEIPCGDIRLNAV
Chain of Cytochrome P450 2C9 (P11712 whole entry): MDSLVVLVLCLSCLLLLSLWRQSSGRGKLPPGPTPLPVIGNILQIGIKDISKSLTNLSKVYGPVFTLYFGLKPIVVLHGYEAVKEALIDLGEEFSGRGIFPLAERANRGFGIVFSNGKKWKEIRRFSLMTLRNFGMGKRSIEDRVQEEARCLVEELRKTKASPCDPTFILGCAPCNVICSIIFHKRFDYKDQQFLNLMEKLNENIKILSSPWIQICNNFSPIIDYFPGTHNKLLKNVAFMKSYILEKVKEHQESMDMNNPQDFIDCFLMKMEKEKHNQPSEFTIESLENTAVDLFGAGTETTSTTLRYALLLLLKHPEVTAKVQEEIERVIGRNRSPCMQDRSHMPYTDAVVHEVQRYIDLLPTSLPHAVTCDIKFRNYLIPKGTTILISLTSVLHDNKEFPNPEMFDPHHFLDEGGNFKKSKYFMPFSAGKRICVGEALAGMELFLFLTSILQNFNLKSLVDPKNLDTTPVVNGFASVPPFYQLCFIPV
Chain of Cytochrome P450 2C19 (P33261 whole entry): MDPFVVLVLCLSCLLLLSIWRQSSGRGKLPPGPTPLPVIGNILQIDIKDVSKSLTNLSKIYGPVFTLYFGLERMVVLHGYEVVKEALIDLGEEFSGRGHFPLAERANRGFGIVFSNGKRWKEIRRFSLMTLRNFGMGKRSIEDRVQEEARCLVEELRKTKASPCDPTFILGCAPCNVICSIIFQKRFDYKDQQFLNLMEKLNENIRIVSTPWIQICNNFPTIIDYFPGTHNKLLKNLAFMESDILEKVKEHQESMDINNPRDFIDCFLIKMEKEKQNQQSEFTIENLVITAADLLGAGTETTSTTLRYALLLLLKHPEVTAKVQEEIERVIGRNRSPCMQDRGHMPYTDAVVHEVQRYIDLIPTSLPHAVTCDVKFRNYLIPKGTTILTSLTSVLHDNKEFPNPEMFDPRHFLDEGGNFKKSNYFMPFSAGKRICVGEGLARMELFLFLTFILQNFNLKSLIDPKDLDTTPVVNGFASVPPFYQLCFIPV
Chain of Sodium-dependent noradrenaline transporter (P23975 whole entry): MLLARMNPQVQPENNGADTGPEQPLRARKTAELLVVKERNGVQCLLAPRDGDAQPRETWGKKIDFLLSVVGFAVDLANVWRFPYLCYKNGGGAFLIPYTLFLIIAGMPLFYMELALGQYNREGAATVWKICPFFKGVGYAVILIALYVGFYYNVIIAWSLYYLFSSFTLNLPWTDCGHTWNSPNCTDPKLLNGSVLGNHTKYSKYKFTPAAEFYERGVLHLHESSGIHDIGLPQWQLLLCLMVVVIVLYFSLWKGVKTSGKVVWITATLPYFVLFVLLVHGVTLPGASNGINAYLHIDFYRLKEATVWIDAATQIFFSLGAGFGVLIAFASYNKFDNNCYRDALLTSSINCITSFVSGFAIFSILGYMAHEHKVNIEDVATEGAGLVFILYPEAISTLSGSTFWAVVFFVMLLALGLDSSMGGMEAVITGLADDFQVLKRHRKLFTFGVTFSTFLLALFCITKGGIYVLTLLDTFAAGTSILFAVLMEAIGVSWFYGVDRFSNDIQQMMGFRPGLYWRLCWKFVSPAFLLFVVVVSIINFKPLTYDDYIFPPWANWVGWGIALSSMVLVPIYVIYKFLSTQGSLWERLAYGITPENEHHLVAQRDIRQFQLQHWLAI
Chain of Sodium-dependent dopamine transporter (Q01959 whole entry): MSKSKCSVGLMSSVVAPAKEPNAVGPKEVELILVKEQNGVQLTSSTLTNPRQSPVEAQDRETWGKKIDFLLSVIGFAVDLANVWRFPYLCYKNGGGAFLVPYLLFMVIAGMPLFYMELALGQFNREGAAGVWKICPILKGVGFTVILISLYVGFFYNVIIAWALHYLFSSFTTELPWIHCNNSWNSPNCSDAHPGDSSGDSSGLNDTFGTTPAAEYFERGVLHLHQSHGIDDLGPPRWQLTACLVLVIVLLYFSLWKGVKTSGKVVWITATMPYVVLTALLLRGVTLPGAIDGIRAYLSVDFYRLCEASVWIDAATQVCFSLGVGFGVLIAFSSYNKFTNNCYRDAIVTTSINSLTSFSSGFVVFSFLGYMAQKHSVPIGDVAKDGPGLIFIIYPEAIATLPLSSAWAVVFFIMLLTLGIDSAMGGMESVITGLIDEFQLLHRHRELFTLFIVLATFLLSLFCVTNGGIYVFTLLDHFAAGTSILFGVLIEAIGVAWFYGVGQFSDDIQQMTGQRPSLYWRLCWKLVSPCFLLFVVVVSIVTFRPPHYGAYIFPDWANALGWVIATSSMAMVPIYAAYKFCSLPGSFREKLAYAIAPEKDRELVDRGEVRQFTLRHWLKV

With `CC(N)C1(c2cccc3ccccc23)CCCCC1` (configuration not stated), the figures for the half-life in data set [1] and in data set [2] were above 300 min and 80 min, respectively.

Consider `CC(N)C1(c2ccc(OC(F)(F)F)cc2)CCCCC1` (configuration not stated), for which the values for the half-life in [1] and in data set [2] were above 300 min and 100 min, respectively. The compound further returned an IC50 in [3] of 0.11 µM.

For `CC(N)C1(c2ccc(OC(C)(C)C)cc2)CCCCC1` (configuration not stated), the IC50 in data set [3] came to 7.1 µM; in [4] it was 5 µM; in [5], 1.52 µM.

Turning to `CC(N)C1(c2cccs2)CCCCC1` (configuration not stated), the results for the half-life in data set [1] and in data set [2] were 152 min and 137 min, respectively.

For `CC(N)C1(c2ccc(-c3ccccc3)cc2)CCCCC1` (configuration not stated), the half-life came out at 248 min in data set [1] and 40 min in [2].

Consider `CC(N(C)C)C1(c2ccc(Cl)c(Cl)c2)CCCCC1.Cl` (configuration not stated), for which the IC50 against Cytochrome P450 2C9 is above 25 µM; in data set [7] it was 40 µM; against Cytochrome P450 2D6, above 25 µM; on Cytochrome P450 3A4, above 25 µM; in [9] it was above 25 µM; on Cytochrome P450 2C19, above 25 µM. Moreover, the Activity in the data set on Mus musculus [6] was 27%; in the data set with Mus musculus [8], 39%.

In the case of `CC(N(C)C)C1(c2ccc(Cl)c(Cl)c2)CCCCC1` (configuration not stated), the Drug uptake with Brain [10] stood at 19 ng/g; in the data set with Brain [14], 114 ng/g; in the data set on Brain [15], 845 ng/g. In addition, in the data set with Mus musculus [11], the Activity result was “Dose-dependent effect”. Also, the Cp in the data set with Plasma [12] is 12 ng/mL; with Plasma [13], 103 ng/mL; in the data set with Plasma [16], 2 ng/mL. Also, the outcome in the data set with Mus musculus [17] was inactive.

As for `CC(N)C1(c2ccc(Cl)c(Cl)c2)CCCCC1` (racemic), the half-life in [1] is above 300 min. In data set [2], this compound yielded a t1/2 of 163 min.

Take `CCC(N)C1(c2ccc(Cl)c(Cl)c2)CCCCC1` (racemic): the half-life in data set [1] amounted to 96 min; in data set [2], 56 min.

Turning to `CC(C)CC(N)C1(c2ccc(Cl)c(Cl)c2)CCCCC1` (racemic), the half-life turned out to be 83 min in data set [1] and 59 min in [2].

In the case of `CNC(C)C1(c2ccc(Cl)c(Cl)c2)CCCCC1` (racemic), the values for the t1/2 (in the data set with Liver microsomes; in data set [2]) were 281 min and 154 min, respectively.

Turning to `CNC(CC(C)C)C1(c2ccc(Cl)c(Cl)c2)CCCCC1` (racemic), the half-life in data set [1] is 23 min; in data set [2] it was 18 min.

As to `CC(N(C)C)C1(c2ccc(Cl)c(Cl)c2)CCCCC1` (racemic), the half-life in data set [1] turned out to be 23 min; in data set [2], 22 min.

In the case of `CC(C)CC(N(C)C)C1(c2ccc(Cl)c(Cl)c2)CCCCC1` (racemic), the half-life in [1] was 18 min; in data set [2], above 300 min.

On to `CC(N)C1(c2ccc3ccccc3c2)CCCCC1` (racemic), for which the half-life is 140 min in data set [1] and 16 min in data set [2].

In the case of `CC(N(C)C)C1(c2ccc3ccccc3c2)CCCCC1` (racemic), the half-life in data set [1] stood at 33 min; in data set [2] it was 22 min.

As to `CNC(C)C1(c2ccc(Cl)c(Cl)c2)CCCCC1` (single isomer, unassigned), the t1/2 in the data set with Liver microsomes is reported as 71 min; in data set [2] it was 54 min.

Regarding `CC(N(C)C)C1(c2ccc(Cl)c(Cl)c2)CCCCC1` (single isomer, unassigned), the t1/2 in [2] is listed as 28 min.

For the compound `CC(N)C1(c2ccc3ccccc3c2)CCCCC1` (single isomer, unassigned), the figures for the t1/2 (with Liver microsomes; in data set [2]) were 150 min and 11 min, respectively.

For `CC(N)C1(c2ccc(Cl)c(Cl)c2)CCCCC1` (single isomer, unassigned; enantiomer 1), the t1/2 in data set [2] is listed as 84 min.

`CC(N(C)C)C1(c2ccc(Cl)c(Cl)c2)CCCCC1` (single isomer, unassigned; enantiomer 1) had an IC50 in data set [18] of 40 µM. The values for the t1/2 (with Liver microsomes; in data set [2]) were 28 min and 25 min, respectively.

Take `CC(N)C1(c2ccc3ccccc3c2)CCCCC1` (single isomer, unassigned; enantiomer 2): the t1/2 with Liver microsomes was found to be 164 min; in data set [2], 14 min.

The compound `CC(N(C)C)C1(c2ccc3ccccc3c2)CCCCC1` (single isomer, unassigned; enantiomer 2) had a t1/2 in data set [2] of 23 min.

With `CNC(C)C1(c2ccc3ccccc3c2)CCCCC1` (single isomer, unassigned; enantiomer 2), the t1/2 in the data set on Liver microsomes worked out at 101 min; in [2], 11 min.

For `CNC(C)C1(c2ccc(Cl)c(Cl)c2)CCCCC1.Cl` (single isomer, unassigned; enantiomer 2), the Activity in the data set on Mus musculus [19] came out at 13%; with Mus musculus [6] it was 25%; in the data set with Mus musculus [8], 3.3%. In addition, the IC50 is 8.5 µM at Cytochrome P450 2D6 and above 25 µM in data set [9].

Consider `CNC(C)C1(c2ccc(Cl)c(Cl)c2)CCCCC1` (single isomer, unassigned; enantiomer 2), for which the figures for the Drug uptake in the data set with Brain [10], with Brain [14] and with Brain [15] were 145 ng/g, 782 ng/g and 7070 ng/g, respectively. For the same compound, the Activity result in the data set on Mus musculus [11] is “Dose-dependent effect”. Besides, the Cp is 44 ng/mL in the data set with Plasma [12], 544 ng/mL in the data set with Plasma [13] and 9 ng/mL with Plasma [16]. The result with Mus musculus [17] was inactive.

With `CC(N(C)C)C1(c2ccc3ccccc3c2)CCCCC1` (single isomer, unassigned; form 1), in data set [18], the IC50 came out at 4.3 µM. Further, the figures for the t1/2 (with Liver microsomes; in data set [2]) were 32 min and 19 min, respectively.

Consider `CC(N(C)C)C1(c2ccc3ccccc3c2)CCCCC1.Cl` (single isomer, unassigned; form 2), for which the Activity is recorded as 14% in the data set with Mus musculus [19], 37% with Mus musculus [6] and 30% in the data set on Mus musculus [8]. The IC50 is above 5 µM against Cytochrome P450 2C9; 4.3 µM in [7]; above 5 µM against Cytochrome P450 2D6; above 5 µM at Cytochrome P450 3A4; above 25 µM in [9]; above 5 µM against Cytochrome P450 2C19.

For `CC(N(C)C)C1(c2ccc3ccccc3c2)CCCCC1` (single isomer, unassigned; form 2), the Drug uptake in the data set on Brain [10] amounted to 25 ng/g; with Brain [14], 130 ng/g; in the data set with Brain [15], 564 ng/g. Further, the Activity result in the data set on Mus musculus [11] is “Dose-dependent effect”. Besides, the Cp in the data set with Plasma [12] was determined as 13 ng/mL; in the data set with Plasma [13] it was 68 ng/mL; with Plasma [16] it was 2 ng/mL. Moreover, in the data set on Mus musculus [17], the outcome was inactive.

`CNC(C)C1(c2ccc(Cl)c(Cl)c2)CCCCC1` (stereo in doubt; 24): the t1/2 with Liver microsomes amounted to 53 min; in data set [2] it was 52 min.

For the compound `CNC(C)C1(c2ccc3ccccc3c2)CCCCC1` (stereo in doubt; 29), the half-life in data set [1] is 90 min; in [2], 12 min.

In general, half-life refers to the time needed for the level to fall by half in the phase considered. As a reminder, the IC50 is the concentration that gives 50% inhibition.

These data come from ChEMBL document CHEMBL1681689, “Discovery of N-methyl-1-(1-phenylcyclohexyl)ethanamine, a novel triple serotonin, norepinephrine and dopamine reuptake inhibitor” (Bioorg Med Chem Lett, 2011).
